This is an account of results in article PMC10714399, “Open Source Antibiotics: Simple Diarylimidazoles Are Potent against Methicillin-Resistant Staphylococcus aureus” (ACS Infectious Diseases, 2023).

Data set [1] is described as follows: In vitro metabolic stability, rat liver microsomes (Monash). To be noted: NADPH. It counts as in vitro ADME. How it is done: (§1) The metabolic stability assay was performed by incubating each test compound with a suspension of liver microsomes (0.4 mg/mL protein, 1 μM substrate, 37 °C). Microsomes were purchased from XenoTech. The metabolic reaction was initiated by the addition of an NADPH-regenerating system and quenched at various time points over a 60 min incubation by the addition of acetonitrile containing metolazone as an internal standard. Control samples (containing no NADPH) were included (quenched at 2, 30, and 60 min) to monitor for potential degradation in the absence of cofactor. […]
(§2) d) In Vitro Metabolic Stability
(§3) The metabolic stability assay was performed by incubating each test compound with a suspension of liver
(§4) microsomes (0.4 mg/mL, 37°C). The metabolic reaction was initiated by the addition of an NADPH-regenerating
(§5) system and quenched at various time points over a 60 minute incubation by the addition of acetonitrile containing
(§6) metolazone as internal standard. Control samples (containing no NADPH) were included (quenched at 2, 30 and 60
(§7) minutes) to monitor for potential degradation in the absence of cofactor.
(§8) The human liver microsomes used in this experiment were supplied by XenoTech, lot # 1710084.The rat liver
(§9) microsomes used in this experiment were supplied by XenoTech, lot # 1610290. Microsomal incubations were
(§10) performed at a substrate concentration of 1 µM.
(§11) Data analysis and interpretation:
(§12) Substrate depletion as a function of time was analysed as described by Obach (1999) Drug Metab. Dispos., 27:1350-
(§13) 1359. Intrinsic clearance (CLint) values were classified at the limits of low and high clearance bands based on a
(§14) rearrangement of the well stirred model of hepatic elimination. It should be noted that the potential impact of
(§15) compound binding (either in microsomes or in blood) on the relationship between in vitro intrinsic clearance and
(§16) hepatic clearance in vivo has not been accounted for in these studies.
(§17) In Vitro Intrinsic Clearance
(§18) Species (µL/min/mg protein)
(§19) Low Clearance High Clearance
(§20) Experimental results are tabulated on the following page(s).
(§21) (1 picture or pasted object on this page, not shown here)
On the technique in general: Liver microsomes are vesicles of endoplasmic reticulum, rich in cytochrome P450 enzymes.

Data set [2] is described as follows: In vitro metabolic stability, human liver microsomes (Monash). It is filed as in vitro ADME. As to conditions: NADPH. On the procedure:
as §1, §2, §3, §4, §5, §6, §7, §8, §9, §10, §11, §12, §13, §14, §15, §16, §17, §18, §19, §20, §21

Data set [3] in a line: Distribution coefficient estimation using chromatography, gLogD (Monash). It is filed as physicochemical.
Description: Partition coefficient values (LogD) of the test compounds were estimated at pH 7.4 by the correlation of their chromatographic retention properties against the characteristics of a series of standard compounds with known partition coefficient values. The method employed is a gradient HPLC-based derivation of the method developed by Lombardo.[42] […]
c) Distribution Coefficient Estimation using Chromatography (gLogDpH)
Partition coefficient values (LogD) of the test compounds were estimated at pH 7.4 by correlation of their
chromatographic retention properties against the characteristics of a series of standard compounds with known
partition coefficient values. […]
(§22) In Vitro Intrinsic Clearance […]
as §20, §21

Data set [4] is described as follows: Kinetic solubility estimation using nephelometry (Monash). It counts as physicochemical. As to conditions: for Sol 2.0: 0.01 M HCl, approx pH 2.0; for Sol 6.5: pH 6.5 phosphate buffer. How it is done: Compound in DMSO was spiked into either pH 6.5 phosphate buffer or 0.01 M HCl (approximately pH 2.0) with the final DMSO concentration being 1%. […]
b) Kinetic Solubility Estimation using Nephelometry (SolpH)
Compound in DMSO was spiked into either pH 6.5 phosphate buffer or 0.01 M HCl (approx pH 2.0) with the final
DMSO concentration being 1%. After 30 minutes had elapsed, samples were then analysed via Nephelometry to
determine a solubility range. See Bevan and Lloyd (2000) Anal Chem, 72:1781-1787. […]
as §22, §20, §21

Data set [5] deals with Staphylococcus aureus NCTC 13373 (mecA-positive; methicillin-resistant). Put plainly: In vitro antibacterial activity, MIC (UCL School of Pharmacy assay), MRSA. It counts as cell-based. To be noted: Staphylococcus aureus, read-out: MRSA MIC. The method in brief: (§23)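 Broth microdilution in isosensitest broth; inoculum from overnight tryptone soya agar culture adjusted to A600 0.1 (~1 × 10^8 CFU/mL) then diluted 1:100. Compounds tested as 2-fold series, 32 to 0.03 μg/mL, DMSO at most 2%; vancomycin as quality control.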

Data set [6] concerns MRC-5SV2 (human lung fibroblast cell line). In words: Toxicity against MRC-5SV2. It is filed as cell-based. How it is done: (§24) ADME and toxicity for compounds were measured according to procedures outlined in the manuscript submitted in parallel to this one;2 other procedures were used for those compounds analysed by Monash University (in vitro ADME) or UCL (toxicity), both described in the main

The test system of data set [7] is HEK293 cells. Put plainly: HEK293 toxicity, 96-well dose-response (UCL; MTT or resazurin, with or without recovery). It counts as cell-based, human. To be noted: 32 μg/mL. On the procedure:
The importance of balancing potency vs MRSA and cytotoxicity led us to examine a subset of compounds more thoroughly for toxicity against human embryonic kidney cell line HEK293. […] Dmax is a parameter that quantifies toxicity at the highest tested concentration (32 μg/mL for all compounds), calculated as reciprocal percentage of viable cells (100 – viability%), where cells either were allowed to recover or viability was measured immediately after treatment. […] Our efforts focused on trying to replicate the original toxicity experiments (by CO-ADD) with tamoxifen using a protocol modified for use with 96-well plates. Given the variability of protocols and results in the literature,[28] it was important to compare with a standard protocol we have reliably used in our own laboratories.[29]−[33] […] Truly “non-toxic” compounds might be expected to show Dmax < 50% for all experiment variations, e.g., 861. […] A large spread of Dmax values comparing recovery and non-recovery conditions larger than 20% is perhaps indicative of a mechanism of toxicity that persists beyond exposure, i.e., cytotoxic compounds that continue to induce toxicity as cells recover and restart dividing, for example, compounds 865, 870, 871, 980, and 981. […] This variability could be driven by interference of the compounds with the fluorescence readout or resorufin build-up as previously described.[27]
HEK293 cells (ATCC, UK) at passage 32 were a kind gift from Dr. Ben Allsop from the Translational Research Office at University College London. Cells were tested for mycoplasma using a MycoAlert Detection Kit (Lonza, Switzerland) as per manufacturer instructions, frozen stocks were stored in liquid nitrogen, and cells were re-tested whenever a new aliquot was thawed.
Cells were maintained in DMEM (Sigma-Aldrich, UK) supplemented with 10% heat-inactivated FBS (Sigma-Aldrich, UK), 1% GlutaMax (ThermoFisher, UK), and 1% sodium pyruvate (Lonza, UK) without antibiotics in an incubator at 37 °C and 5% CO2. Media was changed every 2 days, and cells were passaged every 3–4 days at a subcultivation ratio of 1:10, by detaching the cells with phenol-free TrypLE Express (ThermoFisher, UK), after washing with HBSS Ca^2+/Mg^2+ (ThermoFisher, UK). Up to 55 passages were used throughout the experiments.
(a) Cell seeding: At subculture, a dilute solution of cells was counted using Trypan Blue (Sigma-Aldrich, UK) and a hemocytometer. Cells were further diluted to 7000 or 50 000 cells/mL for experiments.
For recovery experiments, 700 cells (100 μL) were seeded in 96-well plates and incubated for 48 h while cells reached exponential phase.
For non-recovery experiments, 5000 cells (100 μL) were seeded in 96-well plates and incubated for 48 h while cells reached confluence. This is the same number of cells as per the CO-ADD protocol where 384-well plates were used, but we extended the growth time to 48 h to produce a similar confluency.
Stock solutions were diluted 100 times (to 1% DMSO) to 32 μg/mL in full medium (vortexed briefly) and then serially diluted using a digital pipet (Explorer, Eppendorf, Germany) at a dilution factor of 2 to a final concentration of […].
(c) Dosing experiments: At the specified time after seeding, media was removed from cells, cells were washed with HBSS Ca^2+/Mg^2+ (100 μL), and 100 μL of diluted compounds were added as per Supporting Information - Biology, Figure S4, and incubated for 24 h.
After treatment, solutions were removed, and cells were washed with HBSS Ca^2+/Mg^2+. For non-recovery experiments, viability was determined immediately as described below.
For recovery experiments, fresh media was added to plates (100 μL) and cells were returned to the incubator for another 72 h, after which viability was recorded as described below.
i. MTT assay: 3-[4,5-Dimethylthiazol-2-yl]-2,5-diphenyltetrazolium bromide (MTT) (Sigma-Aldrich, UK) was dissolved in sterile PBS at 5 mg/mL with sonication (20 min), protected from light. […]
In general terms: Resazurin is reduced to fluorescent resorufin, in cell work by metabolically active cells.

Data set [8] has as its system S. aureus ATCC 25923 (methicillin-susceptible). In words: In vitro antibacterial activity, MIC (UCL), MSSA. It is filed as cell-based, Staphylococcus aureus. As to conditions: Staphylococcus aureus; read-out: MSSA MIC. The method in brief: as §23
Data set [9] can be described thus: Aqueous solubility. It is filed as physicochemical. As to conditions: thermodynamic from solid; read-out: Aqueous Solubility.
Data set [10] can be described thus: Rat hepatocyte intrinsic clearance. It is filed as in vitro ADME. To be noted: rat, hepatocytes; Figure 4; read-out: Rat Hep CLint.
Data set [11] deals with PMM (primary mouse macrophages). Put plainly: Toxicity against PMM. It is filed as cell-based. On the procedure:
as §24

The nature of data set [12]: Human plasma protein binding (PPB). It counts as in vitro ADME. As to conditions: human, plasma; read-out: Human PPB (converted).
For data set [13], the system named is Enterococcus faecalis ATCC 51299 (vanA-positive; vancomycin-resistant). Put plainly: In vitro antibacterial activity, MIC (UCL), VRE. It is filed as cell-based. As to conditions: for MIC: read-out: VRE MIC. The method in brief: as §23

In general, MIC refers to the least concentration at which growth counts as inhibited. The solubility is the concentration that dissolves in the medium under given conditions.

Values after ≈ are worked out from the molar mass of the structure shown. Where two headings read alike, the source gives them in different places.

On to `c1ccc(-c2nc3n(c2-c2ccc4c(c2)OCO4)CCS3)nc1` [UNC-ALM-DAI-16], for which, in data set [1], the “CLint, in vitro” value was 74 µL/min/mg protein and the T1/2 is 23 min. Moreover, in [2], the “CLint, in vitro” value was found to be 37 µL/min/mg protein and the T1/2 is reported as 47 min. Moreover, the “gLogD at pH 7.4” value in data set [3] is reported as 1.6. In addition, in [4], the “Sol 2.0” value is 25 to 50 µg/mL and the “Sol 6.5” value is 12.5 to 25 µg/mL.
Regarding `c1ccc(-c2nc3ccccn3c2-c2ccc3c(c2)OCO3)nc1` [UNC-ALM-DAI-18], in [1], the “CLint, in vitro” value is given as 99 µL/min/mg protein and the T1/2 was 18 min. Moreover, in data set [2], the “CLint, in vitro” value worked out at 47 µL/min/mg protein and the T1/2 was 37 min. In data set [3], the “gLogD at pH 7.4” value was 1.8. For the same molecule, in data set [4], the “Sol 2.0” value is on record as above 100 µg/mL and the “Sol 6.5” value was 25 to 50 µg/mL.
As for `c1ccc(-c2nc3n(c2-c2ccc4occc4c2)CCC3)nc1` [UNC-ALM-DAI-27], in data set [1], the “CLint, in vitro” value came to 72 µL/min/mg protein and the T1/2 turned out to be 24 min. Also, in data set [2], the “CLint, in vitro” value is listed as 51 µL/min/mg protein and the T1/2 is reported as 34 min. In addition, the “gLogD at pH 7.4” value in [3] is on record as 1.9. In addition, in data set [4], the “Sol 2.0” value is above 100 µg/mL and the “Sol 6.5” value is 25 to 50 µg/mL.
`CCCN(c1ccc(F)cc1)c1c(-c2ccccn2)nc2ccccn12` [compound 982]: the MIC was 2 µg/mL (≈ 5.77 µM) in data set [5] (16 h), 2 µg/mL (≈ 5.77 µM) in [5], 2 µg/mL (≈ 5.77 µM) in data set [8] and 4 µg/mL (≈ 11.5 µM) in data set [13]. In addition, the “MRC5 TC50” value in data set [6] was determined as 1.5 µg/mL. Besides, in data set [7], the “spread of Dmax values comparing recovery and non-recovery conditions” value was “small difference”. For the same molecule, in data set [9], the solubility amounted to 3 µM (≈ 1.04 µg/mL). Further, the hepatocyte CLint in data set [10] turned out to be 108 µL/min/1e6 cells. In addition, in [11], the “PMM TC50” value was 0.7 µg/mL. The fraction unbound in data set [12] was 0.007. The “VRE MIC” value in [13] is reported as 4 µg/mL.
For `CC(C)CN(c1ccc(F)cc1)c1c(-c2ccccn2)nc2ccccn12` [compound 983], the MIC in data set [5] (16 h) is 2 µg/mL (≈ 5.55 µM); in [5] it was 2 µg/mL (≈ 5.55 µM); in data set [8], 4 µg/mL (≈ 11.1 µM); in data set [13], 8 µg/mL (≈ 22.2 µM). Further, the “MRC5 TC50” value in data set [6] worked out at 19.5 µg/mL. Moreover, the “spread of Dmax values comparing recovery and non-recovery conditions” value in data set [7] was “small difference”. Further, the solubility in [9] amounted to 8 µM (≈ 2.88 µg/mL). For the same molecule, the hepatocyte CLint in data set [10] came out at 234 µL/min/1e6 cells. In addition, in data set [11], the “PMM TC50” value stood at 8.3 µg/mL. For the same molecule, in data set [12], the fraction unbound is 0.004.
